A short description of this series: Comparative stability of stored solid samples (HPLC purity, PXRD, appearance after 7 days). It counts as physicochemical. How it is done: The chemical stability data using HPLC was evaluated on samples stored at several conditions as listed in Table 6 between free base hemihydrate Form 1 and amorphous form.
HPLC Method • Column: LC\027 Agilent Poroshell 120 EC-C18 150×4.6 mm, 2.7 μm • Column Temperature: 40° C. • Autosampler Temperature: Ambient • UV wavelength: 220 nm • Injection Volume: 4.00 μL • Flow Rate: 1.5 mL/min • Mobile Phase A: 0.02% TFA in H2O • Mobile Phase B: 0.02% TFA in MeCN • Time (minutes) Solvent B [%] • 0 20 • 3 20 • 15 70 • 15.1 95 • 16 95 • 16.1 20 • 20.0 20

Structures are written as SMILES.

Take `Nc1nccc(Sc2cnc(N3CCC4(CC3)Cc3ccccc3[C@H]4N)nn2)c1Cl` [Amorphous, (S)-1′-(6-((2-amino-3-chloropyridin-4-yl)thio)-1,2,4-triazin-3-yl)-1,3-dihydrospiro[indene-2,4′-piperidin]-1-amine]: the “HPLC purity (%) after 7 days” value by setting is: (stored at 25° C./60% RH) 82.8%; (stored at 40° C./75% RH) 86.7%; (stored at 80° C.) 54.7%; (stored at Ambient) 71.7%. Further, the “Observations after 7 days” value is, setting by setting: (stored at 25° C./60% RH) “Vibrant”; (stored at 40° C./75% RH) “Vibrant”; (stored at 80° C.) “Brown”; (stored at Ambient) “Vibrant”. Also, the “PXRD after 7 days” value is “Amorphous” (stored at 25° C./60% RH), “Amorphous” (stored at 40° C./75% RH), “Amorphous” (stored at 80° C.) and “Amorphous” (stored at Ambient).
With `Nc1nccc(Sc2cnc(N3CCC4(CC3)Cc3ccccc3[C@H]4N)nn2)c1Cl` [Form 1, (S)-1′-(6-((2-amino-3-chloropyridin-4-yl)thio)-1,2,4-triazin-3-yl)-1,3-dihydrospiro[indene-2,4′-piperidin]-1-amine], the “HPLC purity (%) after 7 days” value (stored at 25° C./60% RH) is 97.5%, the “HPLC purity (%) after 7 days” value (stored at 40° C./75% RH) is 97.6%, the “HPLC purity (%) after 7 days” value (stored at 80° C.) was found to be 97.1% and the “HPLC purity (%) after 7 days” value (stored at Ambient) is given as 97.1%. Besides, the “Observations after 7 days” value is recorded as “Yellow” (stored at 25° C./60% RH), “Yellow” (stored at 40° C./75% RH), “Yellow” (stored at 80° C.) and “Yellow” (stored at Ambient). In addition, the “PXRD after 7 days” value (stored at 25° C./60% RH) is given as “Form 1”, the “PXRD after 7 days” value (stored at 40° C./75% RH) is listed as “Form 1”, the “PXRD after 7 days” value (stored at 80° C.) is given as “Form 1” and the “PXRD after 7 days” value (stored at Ambient) is listed as “Form 1”.

These data come from patent US20240190843A1, “CRYSTALLINE FORM OF A SHP2 INHIBITOR” (Array BioPharma Inc., priority 2021, published 2024).
